Laboratory results taken from patent US20110028438A1, “MEDICAL USE OF 3-2,2,2-TRIMETHYLHYDRAZINIUM PROPIONATE SALTS” (JSC GRINDEKS, priority 2007, published 2011).
Marks after values point to notes of the source that are not given here.

Experiments:
[1] = as disclosed in EP 1667960 A; cited from earlier work
adult male Wistar rats = experiment: Myocardial infarction in vivo (coronary artery occlusion and 120 minute reperfusion); parameters: species or system rat; details: for Therapeutic effect in in vivo myocardial infarction model compared with Meldonium dihydrate: result in words; for Area of Necrosis, % of Area at Risk / Area of Risk/left ventricle area / Infarct size, % of control: rats, 100 mg/kg by mouth for 14 days; for Area of Necrosis, % of Area at Risk: after 120 minute reperfusion; for Area of Risk/left ventricle area: area at risk expressed as percentage of the left ventricle; for Infarct size, % of control: relative to saline control group
Procedure: Experiments were conducted on adult male Wistar rats with initial weight of 300-350 g. During the experiment, the animals were kept in Standard crates in groups of 8. The feed was a standardized diet R70 (LABFOR, Lactamin AB, Sweden). The room temperature was kept at 21-23° C., relative humidity at 65±10%, 12 hour light/darkness cycle.
Rats weighing approximately 300 g were randomly divided into 4 groups of 8 animals each. The first group received saline by mouth (control group), the second received 100 mg/kg Meldonium dihydrate by mouth, the third 100mg/kg Meldonium hydrogen fumarate and the fourth 100 mg/kg Meldonium dihydrogen phosphate received for 14 days.
Rats were anesthetized with sodium pentobarbital (60 mg/kg i.p.). They were intubated and artificially respirated with rodent respirator (Rodent Ventilator 7025, Ugo Basile, (tally) with 15 mL/kg room air at a respiration rate of 55 breaths/min. Thoracic was open on the left side of breastbone by cutting fourth and fifths, if necessary, ribs. The pericard was open and 5/0 polypropylene suture (Surgipro II, Syneture) was passed under the left anterior descending coronary artery and threaded through a small plastic tube to permit reversible occlusion of the coronart artery. Coronary flow was measured using an ultrasound flow detector (HSE) and PowerLab 8/30 system from ADlnstruments.
Occlusion was performed by constricting threads through a plastic tube.
At the end of the 120 minute reperfusion, After reperfusion hearts were excised and retrogradely perfused via aorta at a constant pressure of 50 mm Hg, with oxygenated Krebs-Henseleit buffer (content in mmol/L: NaCl 118, Ca Cl2 2.52, MgCl2 1.64, NaHCO3 24.88, KH2PO4 1.18, glucose 10.0, EDTA 0.05) pH 7.3-7.5 at 37° C. Then after 10 min the left anterior descending coronary artery was relegated and the risk zone was delineated with 4 mL of 0.1% methylene blue solution in Krebs-Henseleit buffer infused via the aorta root. Hearts were sectioned transversely from the apex to the base of 2 mm thickness and incubated in 1% triphenyl-tetrazolium chloride in phosphate buffer (pH 7.4, 37° C.) for 10 minutes to stain viable tissue red and necrotic tissue white. Afterward, the right ventricle was cut off and photos of the left-ventricle slices were made with a Minolta 7D photo camera. Computerized planemetric analysis of photographs was performed using Image-Pro Plus 4.5.1 software to determine the area at risk (AR) and area of necrosis (AN) expressed as percentage of the left ventricle (LV). Obtained values were then used to calculate the infarct size (IS) as percentage of risk area according to formula: […]

Compound | Stability comparatively with Meldonium dihydrate [1] | Therapeutic effect in in vivo myocardial infarction model compared with Meldonium dihydrate (adult male Wistar rats) | Area of Necrosis, % of Area at Risk (adult male Wistar rats) | Area of Risk/left ventricle area (adult male Wistar rats) | Infarct size, % of control (adult male Wistar rats)
C[N+](C)(C)NCCC(=O)O.O=P([O-])(O)O [Meldonium dihydrogen phosphate, 3-(2,2,2-trimethylhydrazinium) propionate dihydrogen phosphate] | more stable substance comparatively with Meldonium dihydrate | statistically better therapeutically effect than Meldonium dihydrate | 50.9 ± 2.6*^,# % of Area at Risk | 57.0 ± 3.0 | 79.0 ± 4.1*^,# % of control
C[N+](C)(C)NCCC(=O)[O-] [Meldonium dihydrate, 3-(2,2,2-Trimethylhydrazinium) propionate dihydrate, reference compound] | – | – | 64.0 ± 2.7 % of Area at Risk | 58.0 ± 2.2 | 99.0 ± 4.2 % of control
C[N+](C)(C)NCCC(=O)O.O=C([O-])/C=C/C(=O)O [Meldonium hydrogen fumarate, 3-(2,2,2-trimethylhydrazinium) propionate hydrogen fumarate] | more stable substance comparatively with Meldonium dihydrate | more effective as Meldonium dihydrate | 52.2 ± 4.3 % of Area at Risk | 62.0 ± 3.5 | 81.0 ± 6.6 % of control
